Literature values as cited in article PMC6048117 (Scientific Reports, 2018).
Where two headings read alike, the source gives them in different places.

Experiments:
[1] = system: nigral 6-OHDA partial or full lesion rat model

Substance	Efficacy in nigral 6-OHDA partial or full lesion rat model [1]	Neuroprotection in MPTP model (MPTP model; 25 nmol/kg)	Neuroprotection in MPTP model (MPTP model; 10 nmol/kg)
liraglutide (HAEGTFTSDVSSYLEGQAAKEFIAWLVRGRG; chains of the INN, looked up) [GLP-1R agonist]	failed to demonstrate efficacy	did demonstrate neuroprotection	
lixisenatide			did demonstrate neuroprotection
